# Target: T1, Alpha-amylase 1A (Homo sapiens, UniProt P0DUB6)
# T1 sequence (P0DUB6 whole entry): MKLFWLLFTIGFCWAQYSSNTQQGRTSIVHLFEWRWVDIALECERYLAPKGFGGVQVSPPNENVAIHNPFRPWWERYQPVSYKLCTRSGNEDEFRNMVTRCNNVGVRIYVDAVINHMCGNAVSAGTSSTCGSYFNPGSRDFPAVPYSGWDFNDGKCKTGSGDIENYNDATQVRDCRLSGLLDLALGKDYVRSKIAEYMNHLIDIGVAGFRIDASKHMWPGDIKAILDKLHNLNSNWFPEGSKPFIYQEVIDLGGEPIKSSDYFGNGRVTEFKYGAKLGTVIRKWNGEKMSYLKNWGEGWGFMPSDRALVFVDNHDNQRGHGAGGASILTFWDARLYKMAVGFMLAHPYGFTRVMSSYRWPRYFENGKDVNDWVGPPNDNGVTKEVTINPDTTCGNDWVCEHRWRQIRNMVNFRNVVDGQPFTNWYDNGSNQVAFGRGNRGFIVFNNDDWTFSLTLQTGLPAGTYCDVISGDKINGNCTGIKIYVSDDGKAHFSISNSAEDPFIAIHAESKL
# Test: Inhibition of Alpha-amylase (unknown origin)
row,SMILES,IC50
1,C=CCN1C(=O)SC(=Cc2ccc(Cl)cc2Cl)C1=O,44 nM
2,O=C(O)CN1C(=O)SC(=Cc2cn(-c3ccccc3)nc2-c2ccc([N+](=O)[O-])cc2)C1=O,4.1 nM
3,O=C(O)CN1C(=O)SC(=Cc2ccc3c(c2)OCO3)C1=O,10 nM
4,N#Cc1ccccc1-c1ccc(N2C(=O)SC(=Cc3ccccc3Oc3ccccc3)C2=O)cc1,0.13 nM

# Source: BindingDB's records for PubMed 38252989 (IK Gujral Punjab Technical University)
